In ChEMBL document CHEMBL1133398, “Mechanism-based inactivation of thymidylate synthase by 5-(3-fluoropropyn-1-yl)-2'-deoxyuridine 5'-phosphate” (Bioorg Med Chem Lett, 2000):

Assays:
Thymidylate synthase = target: T1, Thymidylate synthase (Lactobacillus casei, UniProt P00469); experiment: The compound was evaluated for the binding affinity against Lactobacillus casei dTMP synthase using spectrophotometric assay; parameters: species or system Lacticaseibacillus casei
T1 sequence (P00469 whole entry): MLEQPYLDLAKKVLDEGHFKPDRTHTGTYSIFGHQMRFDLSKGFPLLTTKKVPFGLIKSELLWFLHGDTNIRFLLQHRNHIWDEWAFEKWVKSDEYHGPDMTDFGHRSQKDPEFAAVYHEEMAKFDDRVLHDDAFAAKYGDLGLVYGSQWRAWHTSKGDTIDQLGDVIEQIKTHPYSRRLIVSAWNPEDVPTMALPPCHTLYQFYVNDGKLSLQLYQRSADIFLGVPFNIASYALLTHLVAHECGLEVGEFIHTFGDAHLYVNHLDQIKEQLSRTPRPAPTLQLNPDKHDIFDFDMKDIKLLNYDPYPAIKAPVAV

[1] = Half life was determined; format: ADME; conditions: rat

- Ki (Thymidylate synthase): 14.8 nM
- half-life [1]: < 1 min
SMILES: O=c1[nH]c(=O)n([C@H]2C[C@H](O)[C@@H](COP(=O)(O)O)O2)cc1C#CCF
